The results in this text go back to ChEMBL document CHEMBL3507680, “University of Dundee, Gates Library screen for HepG2 cell viability”.

The data set in a line: Human HepG2 cell viability assay in 384 well format. The arrangement: dose 125 nL, time 70.5 hour; concentration not given beside the values. In kind it is toxicity, cell-based. To be noted: HepG2 cells, read-out: Inhibition.
For the compound `CCN(C)CC1CCN(C(=O)Nc2ccc(-c3csnn3)cc2)C1` (stereo not given), the cytotoxicity at 70.5 h was -5.78%. Take `CCc1nc2n(n1)CCCC2NC(=O)Nc1cc(OC)ccc1C` (stereo not given): the cytotoxicity at 70.5 h turned out to be 3.05%. `O=S(=O)(CC1CCCCC1)NCc1ccnc(O)c1`: the cytotoxicity at 70.5 h is -7.43%. The figure for `O=C1NCCO[C@H]2CN(C(=O)Cc3csc4ccccc34)CC[C@@H]12` is -8.16%. For the compound `O=C(NCC1Cn2nnc(-c3ccsc3)c2CO1)N1CCCC1` (stereo not given), the cytotoxicity at 70.5 h was -7.85%.

As for `O=C(Nc1cccnc1)[C@H]1CN(Cc2cccs2)C[C@H]2OCC[C@@H]12`, the cytotoxicity at 70.5 h is -10.8%. Consider `O=C1NCCO[C@H]2CN(C(=O)c3cccs3)CC[C@@H]12`, for which the cytotoxicity at 70.5 h came out at 20.1%. On to `O=C1NCCO[C@H]2CN(C(=O)Cc3ccco3)CC[C@@H]12`, for which the cytotoxicity at 70.5 h is -5.72%. The figure for `Cc1csc(CN2C[C@@H]3CN(CC4CCOCC4)CCO[C@@H]3C2)n1` is -6.62%.

On to `Cc1csc(CN2C[C@@H]3CN(C)CCO[C@@H]3C2)n1`, for which the cytotoxicity at 70.5 h is -3.79%. To `Cc1cnc(C(=O)N2C[C@H](N3CCOCC3)[C@@H]3OCCC[C@@H]32)cn1` belongs -13.1%; to `Cc1ccc(C(=O)N2C[C@@H](N3CCN(C)CC3)[C@H]3OCCC[C@H]32)cn1`, -11.9%.

`Cc1nnc([C@@]23CCO[C@@H]2CCN(Cc2cccc4ccccc24)C3)o1`: the cytotoxicity at 70.5 h is -6.43%. With `CCS(=O)(=O)N1CCC2(CCN(C(=O)c3cccs3)CC2)CC1`, the cytotoxicity at 70.5 h is -4.52%.

Consider `Cc1nnc([C@@]23CCO[C@@H]2CCN(Cc2scnc2C)C3)o1`, for which the cytotoxicity at 70.5 h is -10.2%. As to `Cc1ncccc1NC(=O)c1nc2c(n1C)CCN(C(=O)C1CC1)C2`, the cytotoxicity at 70.5 h was -8.28%. With `COCc1cnc2n1CCN(C(=O)c1cc3cc(Cl)ccc3o1)C2C` (stereo not given), the cytotoxicity at 70.5 h stood at 18.3%. As for `CS(=O)(=O)N1C[C@@H]2COC[C@]2(C(=O)NCCc2cccs2)C1`, the cytotoxicity at 70.5 h is -7.21%. Regarding `CCOC1COC2(CCN(S(=O)(=O)c3ccc(F)cc3)CC2)C1` (stereo not given), the cytotoxicity at 70.5 h is -12.9%. Turning to `Cc1cnc(N2CCC3(C2)CN(S(=O)(=O)C2CC2)C3)nc1`, the cytotoxicity at 70.5 h was -8.82%.

As for `CN(Cc1cccnc1)C[C@H]1OC[C@@H]2CCN(c3ncccn3)C[C@@H]21`, the cytotoxicity at 70.5 h is -0.858%. Regarding `Cc1noc(C)c1CN1CCn2c(COC(C)C)nnc2C1`, the cytotoxicity at 70.5 h was -10.8%. As for `COC[C@@]12CCO[C@@H]1CCN(C(=O)C1CCSCC1)C2`, the cytotoxicity at 70.5 h was -5.18%.

Turning to `O=C([C@@H]1COC[C@H]2CN(C3CCCCC3)C[C@H]21)N1CCOCC1`, the cytotoxicity at 70.5 h is -9.47%.

In the case of `O=C([C@H]1COC[C@H]2CN(C3CCCC3)C[C@H]21)N1CCOCC1`, the cytotoxicity at 70.5 h was -9.13%. The figure for `COC[C@@]12CCO[C@@H]1CCN(C(=O)C1CC(F)(F)C1)C2` is -11.5%. In the case of `COC[C@@]12CCO[C@@H]1CCN(C(=O)C1CCOCC1)C2`, the cytotoxicity at 70.5 h is -11.6%. As to `CCN(C(=O)c1ccc2nnc(C3CCN(C(C)=O)C3)n2c1)C(C)C` (stereo not given), the cytotoxicity at 70.5 h is -12.3%. Turning to `CCN(C(=O)c1ccc2nnc(C3CCN(S(C)(=O)=O)C3)n2c1)C(C)C` (stereo not given), the cytotoxicity at 70.5 h was -9.62%. Take `CC(=O)N1CCC(c2nnc3ccc(C(=O)NCC(C)C)cn23)C1` (stereo not given): the cytotoxicity at 70.5 h was -12.8%. For `O=C(NCC1CCCCC1)N1C[C@H]2C[C@H](C(=O)N3CCOCC3)[C@@H](C1)O2`, the cytotoxicity at 70.5 h was 24.6%. Take `Cn1ccnc1C(=O)NC[C@@H]1OC[C@H]2CN(S(C)(=O)=O)CC[C@H]21`: the cytotoxicity at 70.5 h was -5.19%. To `CC(C)NC(=O)[C@H]1C[C@@H]2CN(C(=O)NC(C)C)C[C@H]1O2` belongs -10.3%.

As for `O=C(Cc1ccco1)N1C[C@H]2CCC[C@@]2(COCc2cccnc2)C1`, the cytotoxicity at 70.5 h was -10.4%. For the compound `O=C(Cc1ccco1)N1C[C@H]2CCC[C@@]2(COc2cccnc2)C1`, the cytotoxicity at 70.5 h was -5.14%. Consider `O=C(Cc1ccco1)N1C[C@H]2CCC[C@@]2(COCC2CC2)C1`, for which the cytotoxicity at 70.5 h is -11.1%. `Cc1cccc(COC[C@@]23CCC[C@@H]2CN(C(=O)Cc2ccco2)C3)n1`: the cytotoxicity at 70.5 h was -8.53%. For the compound `Cc1nnc([C@H]2C[C@H]3CN(C(=O)Cc4ccc(F)cc4)CC[C@@H]3O2)o1`, the cytotoxicity at 70.5 h was -6.08%.

Take `Cc1cc2c(N3CCC(N(C)Cc4cnn(C)c4)CC3)ncnc2s1`: the cytotoxicity at 70.5 h was -3.32%. To `Cc1nccc(-c2ccccc2)c1C(=O)N1CC[C@](C)(O)C(C)(C)C1` belongs 1.9%; to `O=C1CCCCCN1CCC(=O)N1CCCC(c2ccn[nH]2)C1` (stereo not given), -9.01%. As for `Cc1ccc2c(c1)SCC(=O)N2CC(=O)N1CCCC1c1cc(C)on1` (stereo not given), the cytotoxicity at 70.5 h was -1.98%. Regarding `O=C(Nc1ccccc1)c1cc2n(n1)CCCN(C(=O)N1CCCC1)C2`, the cytotoxicity at 70.5 h amounted to 22.6%.

Consider `CNc1nc(C(=O)N2CCC3(CCCN(CC4CC4)C3=O)C2)cs1` (stereo not given), for which the cytotoxicity at 70.5 h is -1.68%. `CN1CCC(N(Cc2ccncc2)Cc2nc3c(s2)CCCC3)CC1`: the cytotoxicity at 70.5 h was -11.2%. For `O=C1CC[C@@H](CN(Cc2ccncc2)Cc2nc(-c3cccs3)no2)N1`, the cytotoxicity at 70.5 h is -3.48%.

Consider `c1ccc(-c2nc3c(c(NCc4nnc5n4CCC5)n2)CCNC3)cc1`, for which the cytotoxicity at 70.5 h is -7.92%. Turning to `Cc1ccnn1CCC(=O)N(Cc1ccsc1)CC(C)C`, the cytotoxicity at 70.5 h is -2.24%.

Take `O=C1OC2(CCN(CC3CCCO3)CC2)CN1CCc1ccccc1` (stereo not given): the cytotoxicity at 70.5 h was found to be 2.25%. To `CN(CCc1ccccc1)C(=O)CN1C(=O)OC[C@@H]1c1ccccc1` belongs 23.5%; to `O=C1CCC(c2ccccc2)(c2ccccc2)CN1CCO`, -3.47%. With `Cn1c(N2CCOCC2)nc2cc(C(=O)N3CC(O)CO3)ccc21` (stereo not given), the cytotoxicity at 70.5 h was 32.1%. As for `Cn1cnc2c(-c3ccccc3)nc(C3CCNCC3)cc21`, the cytotoxicity at 70.5 h worked out at 13.6%. With `CC(C)N1C(=O)C2(CCN(C)CC2)c2cc(F)ccc21`, the cytotoxicity at 70.5 h was -7.44%.

With `CC(C)n1cnc2c(-c3cccnc3)nc(C3CCNCC3)cc21`, the cytotoxicity at 70.5 h was 12%. For the compound `O=C(NC1CC(F)(F)C1)[C@]12COC[C@H]1CN(Cc1ccccc1)C2`, the cytotoxicity at 70.5 h is -9.36%. For `Cc1ncsc1CN1C[C@@H]2COC[C@]2(C(=O)NC2CC(F)(F)C2)C1`, the cytotoxicity at 70.5 h is -4.72%.

For `O=C(O)c1c(-c2cncnc2)ncc2c1CCN(CC1CCOC1)C2` (stereo not given), the cytotoxicity at 70.5 h was -4.73%. Regarding `Cn1ccnc1C(=O)N1CCC2(CCN2Cc2ccc(F)cc2)C1` (stereo not given), the cytotoxicity at 70.5 h is -3.38%. The figure for `CNC(=O)c1cc2c(nc1N(C)C)CCN(c1ncccn1)CC2` is -12%. For the compound `Cc1cc(C(=O)N2CCC3(CC2)C(=O)N(C)CCN3CC(C)C)c(C)o1`, the cytotoxicity at 70.5 h was -10.1%. To `CCOC[C@]12COC[C@H]1CN(Cc1ccc3c(c1)OCO3)C2` belongs -6.35%.

Take `CN1CCN(S(=O)(=O)c2cccc(F)c2)Cc2cccnc21`: the cytotoxicity at 70.5 h is -2.06%. On to `COCC(=O)NC[C@]12COC[C@H]1CN(Cc1ccc3c(c1)OCO3)C2`, for which the cytotoxicity at 70.5 h is -0.957%. Turning to `CS(=O)(=O)NC[C@]12COC[C@H]1CN(Cc1ccc3c(c1)OCO3)C2`, the cytotoxicity at 70.5 h came to 5.12%. With `COC[C@]12COC[C@H]1CN(Cc1ccc3c(c1)OCO3)C2`, the cytotoxicity at 70.5 h was -6.87%.

With `CCN1CC2(CCOCC2)c2cc(NS(=O)(=O)CC)ccc21`, the cytotoxicity at 70.5 h was -2.27%. Take `CCOC1CC2(CCN(C(=O)Cc3ccccn3)CC2)C1`: the cytotoxicity at 70.5 h came out at 18.1%. As for `Cc1nc(CO[C@H]2CN(C(=O)c3cnoc3C)[C@@H]3COC[C@H]23)cs1`, the cytotoxicity at 70.5 h was -3.09%. The figure for `c1ccc(NC[C@@H]2CCC[C@@H]3CN(Cc4cc[nH]n4)C[C@@H]32)nc1` is -12.4%.

Turning to `CN(C)C1COC2(CCN(S(=O)(=O)c3ccc(F)cc3)CC2)C1` (stereo not given), the cytotoxicity at 70.5 h is -13.4%. With `c1ccc(NC[C@@H]2CCC[C@@H]3CN(Cc4nccs4)C[C@@H]32)nc1`, the cytotoxicity at 70.5 h is -0.385%.

For `Cc1nnn2c1COCC(CNCc1nccs1)C2` (stereo not given), the cytotoxicity at 70.5 h was -10.3%. Turning to `O=C(NCCc1cccs1)[C@]12COC[C@H]1CN(C1CCOCC1)C2`, the cytotoxicity at 70.5 h is -6.34%. The figure for `Cn1cncc1C(=O)N1C[C@@H]2CCN(c3cnccn3)C[C@@H]2C1` is -11.9%; for `Cn1ccnc1C(=O)N1C[C@@H]2CCN(c3cnccn3)C[C@@H]2C1` it is -7.28%; for `CC(C)CN1CCc2[nH]nc(C(=O)N3CCCC3)c2C1` it is 28.7%.

For `Cc1ccsc1C(=O)N1CCc2ncc(CN3CCCC3)n2CC1`, the cytotoxicity at 70.5 h is -4.02%. Turning to `O=C1COC2(COCCN(c3ccccn3)C2)CN1c1cccc(F)c1` (stereo not given), the cytotoxicity at 70.5 h was -9.76%. On to `CN1C(=O)CC(c2ccncc2)C12CCN(c1ncccn1)CC2` (stereo not given), for which the cytotoxicity at 70.5 h is -0.583%.

In the case of `CN1CC[C@@H]2[C@@H](CO[C@H]2CNC(=O)c2nccn2C)C1`, the cytotoxicity at 70.5 h was -4.99%. On to `COc1ccccc1CN1CC[C@]2(C[C@@H](OCC(=O)N(C)C)CO2)C1`, for which the cytotoxicity at 70.5 h was -3.75%. To `CC(=O)c1ccc(NC(=O)c2ccc3c(c2)C2(CCCCC2)CN3)cc1` belongs -9.32%. To `O=C(NC1CC(F)(F)C1)[C@]12COC[C@H]1CN(Cc1cccnc1)C2` belongs -10.6%; to `COc1ncccc1CNC1CCc2c(ccc(=O)n2C)C1` (stereo not given), -1.32%; to `O=C(O)c1c(-c2ccncc2)ncc2c1CCN(CC1CCOC1)C2` (stereo not given), -4.36%. For `Cc1cccc(CN2CCC3(CCCN(Cc4cnn(C)c4)C3)C2)n1` (stereo not given), the cytotoxicity at 70.5 h is -14%. For `COc1ncccc1CNC1CCc2c(ccc(=O)n2CC2CC2)C1` (stereo not given), the cytotoxicity at 70.5 h was -8.76%. To `c1ccc(CN2CCCC3(CCN(CC4CCCO4)CC3)C2)nc1` (stereo not given) belongs -9.93%; to `Cc1ccc(CN2CC[C@H]3CO[C@H](CN4CCCC4)[C@H]3C2)o1`, -8.76%.
